# Experimental data from article PMC8309042, “Antimelanogenesis Effects of Leaf Extract and Phytochemicals from Ceylon Olive (Elaeocarpus serratus) in Zebrafish Model” (Pharmaceutics, 2021).
# Like-named read-outs stand apart in the source and are kept apart here.
# Assays:
# zebrafish embryo = assay: Antimelanogenesis effect in zebrafish embryos (melanin content by ImageJ); format: in vivo, zebrafish (Danio rerio); details: for IC50: Danio rerio, read-out: IC50 of melanogenesis inhibition activity in zebrafish; for effect on melanogenesis of zebrafish: concentration 50 μM
# Protocol: Zebrafish (Danio rerio) of wild-type AB strain were maintained in a healthy aquatic environment at 26–30 °C, with a 14:10 h light–dark cycle. After 9 h post fertilization (hpf), embryos were placed into a 24-well plate (3 embryos per well), treated with various final concentrations of specimens dissolved in 1% DMSO, and incubated at 28 °C for 48 h (at 57 hpf). The digital image of live zebrafish embryo was taken through a stereomicroscope (Olympus SZ61, Tokyo, Japan) at a total magnification of 40×; then, the melanin content of zebrafish embryo was analyzed by the ImageJ software. […] The number of replications was six.
# mushroom tyrosinase = assay: Enzyme kinetic study (Lineweaver–Burk plot); format: biochemical; details: for Potential (trend of Vmax with concentration): 0-100 μg/mL; for Inhibition Type: L-tyrosine and L-DOPA substrates, Lineweaver–Burk
# Protocol: Enzyme kinetic study is analyzed by the Lineweaver–Burk reciprocal plot of the reaction rate and the concentration of the substrate to evaluate the effect of the specimen on the affinity of the substrate and enzyme. […] The reaction was similar to antityrosinase assay as described above; 40 µL of specimen solution and 70 µL of potassium phosphate buffer (0.1 M, pH 6.8) were mixed, which was followed by adding 50 µL of 200 unit/mL tyrosinase, after incubation at 25 °C for 10 min.
# [1] = embryos treated 9 hpf to 57 hpf (48 h)
SMILES,Potential (trend of Vmax with concentration) (mushroom tyrosinase; L-DOPA substrate),Potential (trend of Vmax with concentration) (mushroom tyrosinase; L-Tyrosine substrate),Inhibition Type (mushroom tyrosinase),Inhibition Type (mushroom tyrosinase; listed as mearnsetin),Inhibition Type (mushroom tyrosinase; listed as gallic acid),IC50 (zebrafish embryo; [1]) [µM],effect on melanogenesis of zebrafish (zebrafish embryo),IC50 (zebrafish embryo; 48 h) [µM],"IC50 (zebrafish embryo; embryos treated 9 hpf to 57 hpf (48 h), dash defined in footnote) [µM]"
"OC[C@H]1O[C@@H](Oc2ccc(O)cc2)[C@H](O)[C@@H](O)[C@@H]1O [Arbutin, arbutin, reference compound]",–,–,–,–,–,324 ± 19.8,could reduce the melanin formation,–,–
"NC(=S)Nc1ccccc1 [PTU, 1-phenyl-2-thiourea, reference compound]",–,–,–,–,–,–,could reduce the melanin formation,26.3 ± 4.17,–
"COc1c(O)cc(-c2oc3cc(O)cc(O)c3c(=O)c2O)cc1O [Mearnsetin, 4′-O-methyl myricetin]",―,―,Competitive,competitive inhibitor,–,121 ± 0.96,better melanogenesis inhibition activity,–,–

# Second part, led by results:
Potential (trend of Vmax with concentration) (mushroom tyrosinase; L-DOPA substrate),Potential (trend of Vmax with concentration) (mushroom tyrosinase; L-Tyrosine substrate),Inhibition Type (mushroom tyrosinase),Inhibition Type (mushroom tyrosinase; listed as mearnsetin),Inhibition Type (mushroom tyrosinase; listed as gallic acid),SMILES,IC50 (zebrafish embryo; [1]) [µM],effect on melanogenesis of zebrafish (zebrafish embryo),IC50 (zebrafish embryo; 48 h) [µM],"IC50 (zebrafish embryo; embryos treated 9 hpf to 57 hpf (48 h), dash defined in footnote) [µM]"
―,―,Competitive,–,competitive inhibitor,O=C(O)c1cc(O)c(O)c(O)c1 [Gallic acid],–,–,–,> 400
↓,↓,mixed-type inhibitor,–,–,O=c1c(O)c(-c2cc(O)c(O)c(O)c2)oc2cc(O)cc(O)c12 [Myricetin],350 ± 42.7,slight melanin inhibition effect,–,–
